Test results as given in the NIST ThermoML archive (doi:10.1021/je200800f).
Numbers after ± are expanded uncertainties.

How the values were obtained:
[1] = Molar enthalpy of transition or fusion; settings: Crystal; DSC
[2] = DTA

Row | Molar enthalpy of transition or fusion [1] [kcal/mol] | Normal melting temperature ([2]; Crystal) [°C] | Normal melting temperature ([2]; Crystal 1) [°C] | Compound
1 | 8.41 ± 0.382 | 153.2 ± 2 | – | O=C(O)CCCCC(=O)O [1,6-hexanedioic acid]
2 | 9.11 ± 0.287 | – | 138 ± 2 | CC(C)(CC(=O)O)C(=O)O [2,2-dimethyl-1,4-butanedioic acid]
3 | 7.39 ± 0.287 | – | 85.5 ± 2 | CC(CC(=O)O)CC(=O)O [3-methylpentanedioic acid]
4 | 4.04 ± 0.167 | 119.4 ± 2 | – | CC(C(=O)O)C(C)C(=O)O (configuration not stated) [2,3-dimethyl-1,4-butanedioic acid]
5 | 5.14 ± 0.215 | 96.0 ± 2 | – | O=C(O)CCCC(=O)O [1,5-pentanedioic acid]
6 | 6.88 ± 0.287 | 104.2 ± 2 | – | O=C(O)CCCCCC(=O)O [1,7-heptanedioic acid]
